pIC50: −log10 of the molar value. Blank lines part the entries; values can stand above or below the compound they belong to.
Test system: 885512-296-R-J2-PDC complex spheroid viability
Experiment: Anticancer human tumor 885512-296-R-J2-PDC patient-derived breast carcinoma cell line growth inhibition [GQUAD]
Conditions: for pIC50: curve of first compound; for viability, T/C: stronger effect = lower value
Summary of the method: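 Viability of tumor cells grown as complex spheroids with endothelial and stromal cells, exposed to drug combinations. Top concentration at or near clinical Cmax (else 10 microM), diluted in half-log increments.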

[1] = second compound 0.0316 µM, first compound 0.0316 µM
[2] = second compound 0.0316 µM, first compound 0.1 µM
[3] = second compound 0.0316 µM, first compound 0.316 µM
[4] = second compound 0.0316 µM, first compound 1 µM
[5] = second compound 0.0316 µM, first compound 3.16 µM
[6] = second compound 0.0316 µM, first compound 10 µM
[7] = second compound 0.1 µM, first compound 0.0316 µM
[8] = second compound 0.1 µM, first compound 0.1 µM
[9] = second compound 0.1 µM, first compound 0.316 µM
[10] = second compound 0.1 µM, first compound 1 µM
[11] = second compound 0.1 µM, first compound 3.16 µM
[12] = second compound 0.1 µM, first compound 10 µM
[13] = second compound 0.316 µM, first compound 0.0316 µM
[14] = second compound 0.316 µM, first compound 0.1 µM
[15] = second compound 0.316 µM, first compound 0.316 µM
[16] = second compound 0.316 µM, first compound 1 µM
[17] = second compound 0.316 µM, first compound 3.16 µM
[18] = second compound 0.316 µM, first compound 10 µM
[19] = second compound 1 µM, first compound 0.0316 µM
[20] = second compound 1 µM, first compound 0.1 µM
[21] = second compound 1 µM, first compound 0.316 µM
[22] = second compound 1 µM, first compound 1 µM
[23] = second compound 1 µM, first compound 3.16 µM
[24] = second compound 1 µM, first compound 10 µM
[25] = second compound 3.16 µM, first compound 0.0316 µM
[26] = second compound 3.16 µM, first compound 0.1 µM
[27] = second compound 3.16 µM, first compound 0.316 µM
[28] = second compound 3.16 µM, first compound 1 µM
[29] = second compound 3.16 µM, first compound 3.16 µM
[30] = second compound 3.16 µM, first compound 10 µM
[31] = second compound 10 µM, first compound 0.0316 µM
[32] = second compound 10 µM, first compound 0.1 µM
[33] = second compound 10 µM, first compound 0.316 µM
[34] = second compound 10 µM, first compound 1 µM
[35] = second compound 10 µM, first compound 3.16 µM
[36] = second compound 10 µM, first compound 10 µM
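Also: spheroids exposed to the compounds for one week.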
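For viability, T/C in this document: percent of tumor spheroid viability relative to DMSO vehicle control wells.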

Compound: COc1ccc([C@@H](O)c2cc(-c3ncnc4cc(N5CCOCC5)ccc34)c(F)cc2Cl)nn1 + CN(C)c1ccc(Nc2c3ccc(NC(=O)CCN4CCCC4)cc3nc3cc(NC(=O)CCN4CCCC4)ccc23)cc1
pIC50 (second compound 0.0316 µM): 5.02
pIC50 (second compound 0.1 µM): < 5.00
pIC50 (second compound 0.316 µM): < 5.00
pIC50 (second compound 1 µM): < 5.00
pIC50 (second compound 3.16 µM): 5.39
pIC50 (second compound 10 µM): > 7.50
viability, T/C [1]: 105%
viability, T/C [2]: 106%
viability, T/C [3]: 104%
viability, T/C [4]: 103%
viability, T/C [5]: 83.8%
viability, T/C [6]: 48.5%
viability, T/C [7]: 121%
viability, T/C [8]: 93.8%
viability, T/C [9]: 92.1%
viability, T/C [10]: 92.7%
viability, T/C [11]: 74.4%
viability, T/C [12]: 53.6%
viability, T/C [13]: 104%
viability, T/C [14]: 98.1%
viability, T/C [15]: 91%
viability, T/C [16]: 86.6%
viability, T/C [17]: 81.6%
viability, T/C [18]: 50.1%
viability, T/C [19]: 93.4%
viability, T/C [20]: 101%
viability, T/C [21]: 98.5%
viability, T/C [22]: 88.1%
viability, T/C [23]: 81.3%
viability, T/C [24]: 51.9%
viability, T/C [25]: 94.6%
viability, T/C [26]: 101%
viability, T/C [27]: 86%
viability, T/C [28]: 63%
viability, T/C [29]: 60.2%
viability, T/C [30]: 34.9%
viability, T/C [31]: 13.4%
viability, T/C [32]: 21.5%
viability, T/C [33]: 19.6%
viability, T/C [34]: 14.6%
viability, T/C [35]: 10.4%
viability, T/C [36]: 6.55%

pIC50 (second compound 0.0316 µM): > 7.50
pIC50 (second compound 0.1 µM): > 7.50
pIC50 (second compound 0.316 µM): > 7.50
pIC50 (second compound 1 µM): > 7.50
pIC50 (second compound 3.16 µM): > 7.50
pIC50 (second compound 10 µM): > 7.50
Compound: CC(C)n1c(=O)n(C)c2cnc3cc(F)c(-c4ccc(OCCCN5CCCCC5)nc4)cc3c21 + Cc1cnc(CNC(=O)c2c(=O)c3ccc(N4CCCN(C)CC4)nc3n3c2sc2ccccc23)cn1
viability, T/C [1]: 28.4%
viability, T/C [2]: 20.2%
viability, T/C [3]: 26.6%
viability, T/C [4]: 39.4%
viability, T/C [5]: 46.5%
viability, T/C [6]: 49.1%
viability, T/C [7]: 15%
viability, T/C [8]: 16.6%
viability, T/C [9]: 24%
viability, T/C [10]: 18.1%
viability, T/C [11]: 31.6%
viability, T/C [12]: 30.8%
viability, T/C [13]: 13.3%
viability, T/C [14]: 13.1%
viability, T/C [15]: 12.6%
viability, T/C [16]: 16.9%
viability, T/C [17]: 14.6%
viability, T/C [18]: 19.5%
viability, T/C [19]: 18.1%
viability, T/C [20]: 16.6%
viability, T/C [21]: 16.4%
viability, T/C [22]: 18%
viability, T/C [23]: 23.2%
viability, T/C [24]: 12.4%
viability, T/C [25]: 21.9%
viability, T/C [26]: 23.4%
viability, T/C [27]: 21.7%
viability, T/C [28]: 21.8%
viability, T/C [29]: 24.8%
viability, T/C [30]: 9.39%
viability, T/C [31]: 0.15%
viability, T/C [32]: 0.19%
viability, T/C [33]: 0.2%
viability, T/C [34]: 0.17%
viability, T/C [35]: 0.16%
viability, T/C [36]: 0.16%

Compound: CC[C@@]1(O)C(=O)OCc2c1cc1n(c2=O)Cc2cc3c(CN(C)C)c(O)ccc3nc2-1 + CN(C)c1ccc(Nc2c3ccc(NC(=O)CCN4CCCC4)cc3nc3cc(NC(=O)CCN4CCCC4)ccc23)cc1
pIC50 (second compound 0.0316 µM): 7.71
pIC50 (second compound 0.1 µM): 7.66
pIC50 (second compound 0.316 µM): 7.69
pIC50 (second compound 1 µM): 7.69
pIC50 (second compound 3.16 µM): 7.70
pIC50 (second compound 10 µM): > 9.00
viability, T/C (second compound 0.0316 µM, first compound 0.000999 µM): 105%
viability, T/C (second compound 0.0316 µM, first compound 0.00316 µM): 93.1%
viability, T/C (second compound 0.0316 µM, first compound 0.00999 µM): 80.7%
viability, T/C [1]: 28.4%
viability, T/C (second compound 0.0316 µM, first compound 0.0999 µM): 6.28%
viability, T/C [3]: 4.08%
viability, T/C (second compound 0.1 µM, first compound 0.000999 µM): 102%
viability, T/C (second compound 0.1 µM, first compound 0.00316 µM): 95.5%
viability, T/C (second compound 0.1 µM, first compound 0.00999 µM): 83.5%
viability, T/C [7]: 34.9%
viability, T/C (second compound 0.1 µM, first compound 0.0999 µM): 6.9%
viability, T/C [9]: 3.94%
viability, T/C (second compound 0.316 µM, first compound 0.000999 µM): 95.9%
viability, T/C (second compound 0.316 µM, first compound 0.00316 µM): 103%
viability, T/C (second compound 0.316 µM, first compound 0.00999 µM): 80.7%
viability, T/C [13]: 30.2%
viability, T/C (second compound 0.316 µM, first compound 0.0999 µM): 8.66%
viability, T/C [15]: 5.73%
viability, T/C (second compound 1 µM, first compound 0.000999 µM): 99%
viability, T/C (second compound 1 µM, first compound 0.00316 µM): 89.1%
viability, T/C (second compound 1 µM, first compound 0.00999 µM): 78.9%
viability, T/C [19]: 32.2%
viability, T/C (second compound 1 µM, first compound 0.0999 µM): 8.09%
viability, T/C [21]: 7.14%
viability, T/C (second compound 3.16 µM, first compound 0.000999 µM): 85.8%
viability, T/C (second compound 3.16 µM, first compound 0.00316 µM): 78.5%
viability, T/C (second compound 3.16 µM, first compound 0.00999 µM): 82.5%
viability, T/C [25]: 28.2%
viability, T/C (second compound 3.16 µM, first compound 0.0999 µM): 11.3%
viability, T/C [27]: 5.81%
viability, T/C (second compound 10 µM, first compound 0.000999 µM): 20.1%
viability, T/C (second compound 10 µM, first compound 0.00316 µM): 23.4%
viability, T/C (second compound 10 µM, first compound 0.00999 µM): 18.2%
viability, T/C [31]: 10.8%
viability, T/C (second compound 10 µM, first compound 0.0999 µM): 7.67%
viability, T/C [33]: 5.22%

— PubChem BioAssay AID2060490 (Molecular Pharmacology Branch, DTP, NCI, 2025)
